Measurements taken from the supplement of paper PMC5908809.

Tests used:
KAI3 (IL-2 2.5 ng/mL) [1] = assay: percent inhibition of viability; higher = more inhibition; conditions: 72 h
IMC-1 (IL-2 20 ng/mL) [2] = assay: as above; conditions: 72 h
NKL (IL-2 2.5 ng/mL) [3] = assay: as above; conditions: 72 h
DERL-7 (IL-2 2.5 ng/mL) [4] = assay: as above; conditions: 72 h
[5] = system: normal primary NK cells, pool 1 (3 donors), resting (IL-2 0 ng/mL); assay: as above; conditions: 72 h
NK-92 (IL-2 2.5 ng/mL) [6] = assay: as above; conditions: 72 h
NK-YS (IL-2 2.5 ng/mL) [7] = assay: as above; conditions: 72 h
KHYG-1 (IL-2 2.5 ng/mL) [8] = assay: as above; conditions: 72 h
SNK-6 (IL-2 2.5 ng/mL) [9] = assay: as above; conditions: 72 h
[10] = system: normal primary NK cells, pool 3 (3 donors) (IL-2 2.5 ng/mL); assay: as above; conditions: 72 h
YT (IL-2 2.5 ng/mL) [11] = assay: as above; conditions: 72 h
[12] = system: normal primary NK cells, pool 2 (3 donors) (IL-2 2.5 ng/mL); assay: as above; conditions: 72 h
[13] = system: normal primary NK cells, pool 1 (3 donors) (IL-2 2.5 ng/mL); assay: as above; conditions: 72 h
KAI3 (IL-2 2.5 ng/mL) [14] = assay: drug sensitivity score (DSS) (DSS units); higher = more sensitive; extreme values may be limits of the assay; conditions: 72 h
IMC-1 (IL-2 20 ng/mL) [15] = assay: as above; conditions: 72 h
NKL (IL-2 2.5 ng/mL) [16] = assay: as above; conditions: 72 h
DERL-7 (IL-2 2.5 ng/mL) [17] = assay: as above; conditions: 72 h
[18] = system: normal primary NK cells, pool 1 (3 donors), resting (IL-2 0 ng/mL); assay: as above; conditions: 72 h
NK-92 (IL-2 2.5 ng/mL) [19] = assay: as above; conditions: 72 h
NK-YS (IL-2 2.5 ng/mL) [20] = assay: as above; conditions: 72 h
KHYG-1 (IL-2 2.5 ng/mL) [21] = assay: as above; conditions: 72 h
SNK-6 (IL-2 2.5 ng/mL) [22] = assay: as above; conditions: 72 h
[23] = system: normal primary NK cells, pool 3 (3 donors) (IL-2 2.5 ng/mL); assay: as above; conditions: 72 h
YT (IL-2 2.5 ng/mL) [24] = assay: as above; conditions: 72 h
[25] = system: normal primary NK cells, pool 2 (3 donors) (IL-2 2.5 ng/mL); assay: as above; conditions: 72 h
[26] = system: normal primary NK cells, pool 1 (3 donors) (IL-2 2.5 ng/mL); assay: as above; conditions: 72 h
[27] = system: normal NK cells expanded with K562-aAPC; assay: percent inhibition of viability; higher = more inhibition; conditions: 72 h, IL-2 2.5 ng/mL
Protocol: (§1)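 Drug sensitivity and resistance testing on K562-aAPC-expanded normal NK cells: 5 concentrations (10-fold steps over a 10,000-fold range), 72 h at 37 °C, viability by CellTiter-Glo normalised to DMSO and benzethonium chloride controls; DSS from the fitted curve.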

[28] = system: normal NK cells expanded with K562-aAPC; assay: drug sensitivity score (DSS) (DSS units); higher = more sensitive; extreme values may be limits of the assay; conditions: 72 h; IL-2 2.5 ng/mL
Protocol: as §1

O=C(O)CNC(=O)c1c(O)c2ccccc2n(Cc2ccccc2)c1=O [IOX-2] (max concentration tested 50000 nM)
percent inhibition of viability [%]
Conditions | 5 nM | 50 nM | 500 nM | 5000 nM | 50000 nM
DERL-7 (IL-2 2.5 ng/mL) [4] | -0.5 | 5.58 | 5.28 | -4.63 | 25.8
IMC-1 (IL-2 20 ng/mL) [2] | 1.88 | 0.96 | 5.1 | 6.24 | 28.9
KAI3 (IL-2 2.5 ng/mL) [1] | -3.52 | 1.05 | 2.47 | -3.92 | 11.8
KHYG-1 (IL-2 2.5 ng/mL) [8] | 1.01 | 1.23 | 3.87 | 2.07 | 14.3
NK-92 (IL-2 2.5 ng/mL) [6] | -8.34 | -11.4 | 3.46 | -6.86 | 24.2
NK-YS (IL-2 2.5 ng/mL) [7] | 0.04 | -3.4 | 4.58 | -1.43 | 25.9
NKL (IL-2 2.5 ng/mL) [3] | -6.3 | -1.48 | -3.38 | 1.11 | 28.3
SNK-6 (IL-2 2.5 ng/mL) [9] | 5.46 | -1.31 | -7.77 | 8.49 | 43.1
YT (IL-2 2.5 ng/mL) [11] | -1.09 | -0.73 | 1.54 | -7.45 | 15.8
[5] | 1.89 | -6.6 | 3 | -20.1 | 3.21
[10] | -6.36 | 0.19 | 2.86 | -4.87 | 13.1
[12] | -14.4 | 0.63 | -2.21 | -3.15 | 4.77
[13] | 3.1 | -5.28 | -1.2 | -0.54 | 6.1
[27] | -0.06 | 6.04 | 5.91 | 6.68 | 23.3

Conditions | drug sensitivity score
DERL-7 (IL-2 2.5 ng/mL) [17] | 0.77
IMC-1 (IL-2 20 ng/mL) [15] | 2.14
KAI3 (IL-2 2.5 ng/mL) [14] | 0.01
KHYG-1 (IL-2 2.5 ng/mL) [21] | 0.37
NK-92 (IL-2 2.5 ng/mL) [19] | 0.62
NK-YS (IL-2 2.5 ng/mL) [20] | 0.91
NKL (IL-2 2.5 ng/mL) [16] | 1.32
SNK-6 (IL-2 2.5 ng/mL) [22] | 3.58
YT (IL-2 2.5 ng/mL) [24] | 0.14
[18] | 0
[23] | 0.04
[25] | 0
[26] | 0
[28] | 1.12

CC(=O)[C@]1(O)Cc2c(O)c3c(c(O)c2[C@@H](O[C@H]2C[C@H](N)[C@H](O)[C@H](C)O2)C1)C(=O)c1ccccc1C3=O [Idarubicin] (max concentration tested 1000 nM)
percent inhibition of viability [%]
Conditions | 0.1 nM | 1 nM | 10 nM | 100 nM | 1000 nM
DERL-7 (IL-2 2.5 ng/mL) [4] | 5.69 | 7.69 | 65.2 | 100 | 101
IMC-1 (IL-2 20 ng/mL) [2] | -7.47 | -4.02 | 65.8 | 101 | 101
KAI3 (IL-2 2.5 ng/mL) [1] | 12.1 | 20.2 | 75.2 | 88.7 | 108
KHYG-1 (IL-2 2.5 ng/mL) [8] | -9.43 | 1.7 | 74.3 | 108 | 110
NK-92 (IL-2 2.5 ng/mL) [6] | 0.18 | 7.35 | 69.9 | 108 | 109
NK-YS (IL-2 2.5 ng/mL) [7] | -9.65 | -1.39 | 71.5 | 80.4 | 107
NKL (IL-2 2.5 ng/mL) [3] | 5.06 | 19.9 | 101 | 107 | 110
SNK-6 (IL-2 2.5 ng/mL) [9] | -5.01 | -15.7 | 84.5 | 96.8 | 94.4
YT (IL-2 2.5 ng/mL) [11] | -10.7 | -9.01 | -4.8 | 100 | 110
[5] | 11 | 17.1 | 73.4 | 91.3 | 94
[10] | 4.34 | 4.31 | 46.5 | 98 | 100
[12] | 6.51 | -1.19 | 51.6 | 94.8 | 97.9
[13] | -4.61 | -3.53 | 21.8 | 96.4 | 98.4
[27] | 1.32 | -3 | 56.3 | 97.4 | 101

Conditions | drug sensitivity score
DERL-7 (IL-2 2.5 ng/mL) [17] | 26.1
IMC-1 (IL-2 20 ng/mL) [15] | 25.6
KAI3 (IL-2 2.5 ng/mL) [14] | 28.5
KHYG-1 (IL-2 2.5 ng/mL) [21] | 26.5
NK-92 (IL-2 2.5 ng/mL) [19] | 26.8
NK-YS (IL-2 2.5 ng/mL) [20] | 26.4
NKL (IL-2 2.5 ng/mL) [16] | 33.7
SNK-6 (IL-2 2.5 ng/mL) [22] | 27.1
YT (IL-2 2.5 ng/mL) [24] | 17.6
[18] | 27.5
[23] | 23.2
[25] | 23.9
[26] | 20.9
[28] | 24.8
